# Several values for one entry are separate records, joined by “and”; a condition that tells them apart may be missing. Equal entries are not always repeated.
# Assays:
# Assay in all cases: Test H postemergence mixture test of compound 39 with commercial herbicides, observed and Colby expected effect 0-100
# Assay type in all cases: in vivo
# Conditions in all cases: Cmpd 39 alone, 14 days after treatment
# [1] = test system: palmer pigweed (AMAPA, Amaranthus palmeri)
# From the text: (§1) This test evaluated the effect of mixtures of compound 39 with three commercial herbicides on five plant species. Seeds of plant species selected from corn (ZEAMD, Zea mays), soybean (GLXMA, Glycine max), palmer pigweed (AMAPA, Amaranthus palmeri), waterhemp (common waterhemp, AMATA, Amaranthus rudis), and Kochia (KCHSC, Kochia scoparia) were planted in pots containing Redi-Earth® planting medium (Scotts Company, 14111 Scottslawn Road, Marysville, Ohio 43041) comprising spaghnum peat moss, vermiculite, wetting agent and starter nutrients and treated with postemergence applications of test chemicals formulated in a non-phytotoxic solvent mixture which included a surfactant and applied using a volume of 299 L/ha. Each treatment was replicated four times. Treated plants and controls were maintained in a greenhouse using supplemental lighting to maintain a photoperiod of about 16 h; daytime and nighttime temperatures were about 24-30° C. and 19-21° C., respectively. Nutrients were applied using a balanced fertilizer applied through the watering system. At 14 days after treatment, all species were compared to controls and visually evaluated. Plant response ratings were calculated as the mean of the four replicates, are summarized in Tables H1 through H6, and are based on a scale of 0 to 100 where 0 is no effect and 100 is complete control. A dash (-) response means no test result.
# (§2) Colby's Equation was used to determine the herbicidal effects expected from the mixtures. Colby's Equation (Colby, S. R. “Calculating Synergistic and Antagonistic Responses of Herbicide Combinations,” Weeds, 15(1), pp 20-22 (1967)) calculates the expected additive effect of herbicidal mixtures and for two active ingredients is of the form: Pa+b=Pa+Pb−(PaPb/100) • where • Pa+b is the percentage effect of the mixture expected from additive contribution of the individual components: • Pa is the observed percentage effect of the first active ingredient at the same use rate as in the mixture, and • Pb is the observed percentage effect of the second active ingredient at the same use rate as in the mixture. In the following Tables, rates are shown in grams of active ingredient per hectare (g a.i./ha); “Obsd.” is the observed effect. “Exp.” is the expected effect calculated from Colby's Equation.
# [2] = test system: Kochia (KCHSC, Kochia scoparia)
# From the text: as §1, §2
# [3] = test system: soybean (GLXMA, Glycine max)
# From the text: as §1, §2
# [4] = test system: waterhemp (common waterhemp, AMATA, Amaranthus rudis)
# From the text: as §1, §2
# corn (ZEAMD, Zea mays) = test system: corn (ZEAMD, Zea mays)
# From the text: as §1, §2
smiles,measurement,setting,value
"C#CCn1cc(C(=O)c2ccccc2)c(-c2cc(Cl)cc(Cl)c2)n1 [Compound 39, [3-(3,5-dichlorophenyl)-1-(2-propyn-1-yl)-1H-pyrazol-4-yl]phenylmethanone]",AMAPA Obsd. (observed effect),[1]; 16 g a.i./ha,55
same,AMAPA Obsd. (observed effect),[1]; 31 g a.i./ha,86 and 78
same,AMAPA Obsd. (observed effect),[1]; 62 g a.i./ha,79 and 76
same,KCHSC Obsd. (observed effect),[2]; 16 g a.i./ha,47
same,KCHSC Obsd. (observed effect),[2]; 31 g a.i./ha,60 and 47
same,KCHSC Obsd. (observed effect),[2]; 62 g a.i./ha,64
same,GLXMA Obsd. (observed effect),[3]; 16 g a.i./ha,0
same,GLXMA Obsd. (observed effect),[3]; 31 g a.i./ha,0
same,GLXMA Obsd. (observed effect),[3]; 62 g a.i./ha,0
same,AMATA Obsd. (observed effect),[4]; 16 g a.i./ha,75
same,AMATA Obsd. (observed effect),[4]; 31 g a.i./ha,88 and 83
same,AMATA Obsd. (observed effect),[4]; 62 g a.i./ha,79
same,ZEAMD Obsd. (observed effect),"corn (ZEAMD, Zea mays); 16 g a.i./ha",0
same,ZEAMD Obsd. (observed effect),"corn (ZEAMD, Zea mays); 31 g a.i./ha",0
same,ZEAMD Obsd. (observed effect),"corn (ZEAMD, Zea mays); 62 g a.i./ha",0

# Source: patent US10167262B2, “Herbicidal substituted 3-arylpyrazoles” (FMC CORPORATION, priority 2014, dated 2019)
